Drawing on patent US12303500B2, “Method for improving stability of low-concentration atropine ophthalmic preparation” (SHENYANG XINGQI PHARMACEUTICAL CO., LTD., priority 2018, dated 2025), this text covers Content, Hyoscyamine and Moisture for 1 compound.

Structures can show the parent of a compound that is named as a salt. Where two headings read alike, the source gives them in different places.

For this data set the following is noted: 40°C±2°C, RH 75%±5%.

Description: In the chromatogram of the sample solution, the chromatographic peaks with peak area smaller than 0.5 times of the main peak area of the control solution should be ignored.

On to `CN1[C@@H]2CC[C@H]1C[C@@H](OC(=O)C(CO)c1ccccc1)C2` (stereo partly drawn) [Example 160903-P01, atropine sulfate], for which the Content (0th month) was 100.3%; the Content (1st month) turned out to be 100.3%; the Content (2nd month) turned out to be 100.2%; the Content (3rd month) is recorded as 100.4%; the Content (6th month) is given as 100.3%. Also, the Hyoscyamine entry was “+0.002°” (0th month); “+0.002°” (1st month); “+0.001°” (2nd month); 0.000° (3rd month); 0.000° (6th month). For the same compound, the Moisture is 3.15% (0th month); 3.24% (1st month); 2.97% (2nd month); 3.49% (3rd month); 3.69% (6th month).
